Data published in ChEMBL document CHEMBL4715826, “Selective PPARδ Modulators Improve Mitochondrial Function: Potential Treatment for Duchenne Muscular Dystrophy (DMD)” (ACS Med Chem Lett, 2018).
The source made the active and inactive calls. No cut-off for these calls is given here.

Legend:
[1] = Cmax in CD-1 mouse at 3 mg/kg, po; assay type: ADME, organism-based; set-up: route oral, dose 3 mg/kg; settings: in vivo
[2] = target: T1, Peroxisome proliferator-activated receptor delta (Mus musculus) (UniProt P35396); assay: Modulator activity at PPARdelta in […] primary myoblasts derived from DMD patient assessed as upregulation of PDK4 gene expression at 0.4 nM measured after 48 hrs; assay type: tissue-based; settings: Primary myotube, filed as modulator
T1 sequence (whole entry): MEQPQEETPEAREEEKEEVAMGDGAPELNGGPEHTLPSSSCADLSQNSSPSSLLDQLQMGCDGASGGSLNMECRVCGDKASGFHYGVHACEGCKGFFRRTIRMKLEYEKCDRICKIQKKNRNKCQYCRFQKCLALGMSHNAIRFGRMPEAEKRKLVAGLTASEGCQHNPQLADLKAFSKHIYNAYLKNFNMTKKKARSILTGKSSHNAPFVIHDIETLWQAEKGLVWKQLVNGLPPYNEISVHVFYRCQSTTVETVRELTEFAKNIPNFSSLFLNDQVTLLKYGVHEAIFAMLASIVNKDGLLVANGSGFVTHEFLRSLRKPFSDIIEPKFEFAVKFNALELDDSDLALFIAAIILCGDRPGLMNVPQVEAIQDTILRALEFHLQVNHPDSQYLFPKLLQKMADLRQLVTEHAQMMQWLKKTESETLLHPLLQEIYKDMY

[3] = Half life in CD-1 mouse at 3 mg/kg, iv; assay type: ADME, organism-based; settings: in vivo
[4] = Inhibition of CYP450 (unknown origin); assay type: ADME, Homo sapiens
[5] = Oral bioavailability in Wistar rat at 3 mg/kg; assay type: ADME, organism-based; settings: in vivo
[6] = Modulator activity at rat PPARdelta
[7] = Protein binding in human plasma; assay type: ADME, cell-free; settings: read-out: PPB
[8] = Permeability across apical to basolateral side in human Caco2 cells; assay type: ADME, cell-based; settings: Caco-2, read-out: permeability
Mus musculus = assay: In vivo modulator activity at PPARdelta in C57BL/6JRccHsd mouse skeletal muscle assessed as increase in Pdk4 gene expression at 30 to 100 mg/kg, po administered for 9 days and measured at 2 hrs after final administration by qPCR analysis; assay type: functional, organism-based; settings: dose 30-100 mg/kg, time 9.0 day
[9] = Half life in CD-1 mouse at 1 mg/kg, iv; assay type: ADME, organism-based; settings: in vivo
[10] = Clearance in Wistar rat at 1 mg/kg, iv; assay type: ADME, organism-based; settings: in vivo
[11] = target: T2, Peroxisome proliferator-activated receptor delta (Mus musculus, UniProt P35396); assay: Modulator activity at mouse PPARdelta
T2 sequence (P35396 whole entry): T1 sequence (whole entry)

[12] = Protein binding in mouse plasma; assay type: ADME, cell-free; settings: read-out: PPB (converted)
[13] = target: T1, Peroxisome proliferator-activated receptor delta (Mus musculus); assay: Modulator activity at PPARdelta in […] primary myoblasts derived from DMD patient assessed as upregulation of ANGPTL4 gene expression at 0.04 nM measured after 48 hrs; assay type: tissue-based; settings: Primary myotube
[14] = AUC in Wistar rat at 1 mg/kg, iv; assay type: ADME, organism-based; set-up: dose 1 mg/kg; settings: in vivo
[15] = Protein binding in rat plasma; assay type: ADME, cell-free; settings: read-out: PPB (converted)
[16] = target: T1, Peroxisome proliferator-activated receptor delta (Mus musculus); assay: Modulator activity at PPARdelta in […] primary myoblasts derived from DMD patient assessed as upregulation of ANGPTL4 gene expression at 0.4 nM measured after 48 hrs; assay type: tissue-based; settings: Primary myotube, filed as modulator
[17] = Volume of distribution at steady state in cynomolgus monkey at 3 mg/kg, iv; assay type: ADME, organism-based, Macaca fascicularis; settings: in vivo
[18] = AUC in cynomolgus monkey at 10 mg/kg, po; assay type: ADME, organism-based, Macaca fascicularis; set-up: dose 10 mg/kg; settings: in vivo
[19] = Permeability across basolateral to apical side in human Caco2 cells; assay type: ADME, cell-based; settings: Caco-2, read-out: permeability
[20] = Half life in Wistar rat at 3 mg/kg, po; assay type: ADME, organism-based; settings: in vivo
[21] = AUC in CD-1 mouse at 3 mg/kg, po; assay type: ADME, organism-based; set-up: dose 3 mg/kg; settings: in vivo
CYP2C9 = CYP2C9 (Homo sapiens, UniProt P11712); assay: Inhibition of CYP2C9 (unknown origin) at 10 uM relative to control; assay type: ADME
[22] = Half life in Wistar rat at 1 mg/kg, iv; assay type: ADME, organism-based; settings: in vivo
[23] = Cmax in Wistar rat at 3 mg/kg, po; assay type: ADME, organism-based; set-up: route oral, dose 3 mg/kg; settings: in vivo
[24] = target: T3, Peroxisome proliferator-activated receptor alpha (Homo sapiens, UniProt Q07869); assay: Modulator activity at GAL4-fused human PPARalpha LBD (unknown origin) transfected in African green monkey CV1 cells assessed as receptor transactivation by luciferase reporter gene assay; assay type: cell-based, CV-1
T3 sequence (Q07869 whole entry): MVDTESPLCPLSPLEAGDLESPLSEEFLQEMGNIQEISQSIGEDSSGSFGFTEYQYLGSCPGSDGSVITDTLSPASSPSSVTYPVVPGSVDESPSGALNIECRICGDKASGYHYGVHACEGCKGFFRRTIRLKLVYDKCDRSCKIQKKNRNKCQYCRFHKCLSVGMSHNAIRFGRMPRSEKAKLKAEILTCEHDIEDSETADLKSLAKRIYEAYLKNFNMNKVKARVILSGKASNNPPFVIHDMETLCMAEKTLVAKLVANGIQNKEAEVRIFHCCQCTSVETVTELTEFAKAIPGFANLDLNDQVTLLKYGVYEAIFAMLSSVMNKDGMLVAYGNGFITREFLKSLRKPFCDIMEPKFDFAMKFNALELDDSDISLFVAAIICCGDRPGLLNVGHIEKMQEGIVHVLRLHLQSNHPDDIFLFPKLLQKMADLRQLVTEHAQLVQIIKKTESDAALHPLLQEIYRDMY

[25] = target: T4, Peroxisome proliferator-activated receptor gamma (Homo sapiens, UniProt P37231); assay: Modulator activity at GAL4-fused human PPARgamma LBD (unknown origin) transfected in African green monkey CV1 cells assessed as receptor transactivation by luciferase reporter gene assay; assay type: cell-based, CV-1
T4 sequence (P37231 whole entry): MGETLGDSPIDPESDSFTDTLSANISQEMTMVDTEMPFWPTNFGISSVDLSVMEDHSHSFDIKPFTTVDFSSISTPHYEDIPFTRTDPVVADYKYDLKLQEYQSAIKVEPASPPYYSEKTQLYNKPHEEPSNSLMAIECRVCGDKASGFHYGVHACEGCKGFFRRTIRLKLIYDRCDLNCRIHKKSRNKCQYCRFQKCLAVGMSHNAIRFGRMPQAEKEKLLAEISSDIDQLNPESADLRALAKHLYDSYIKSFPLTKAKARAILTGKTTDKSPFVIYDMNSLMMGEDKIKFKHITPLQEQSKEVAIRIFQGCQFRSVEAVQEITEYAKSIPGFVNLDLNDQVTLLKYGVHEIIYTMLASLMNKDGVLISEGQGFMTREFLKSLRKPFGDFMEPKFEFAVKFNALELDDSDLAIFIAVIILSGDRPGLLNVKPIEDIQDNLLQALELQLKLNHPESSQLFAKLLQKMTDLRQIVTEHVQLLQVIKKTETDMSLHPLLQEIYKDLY

[26] = Half life in cynomolgus monkey at 10 mg/kg, po; assay type: ADME, organism-based, Macaca fascicularis; settings: in vivo
[27] = Clearance in CD-1 mouse at 3 mg/kg, iv; assay type: ADME, organism-based; settings: in vivo
[28] = Cmax in cynomolgus monkey at 10 mg/kg, po; assay type: ADME, organism-based, Macaca fascicularis; set-up: route oral, dose 10 mg/kg; settings: in vivo
[29] = AUC in CD-1 mouse at 3 mg/kg, iv; assay type: ADME, organism-based; set-up: dose 3 mg/kg; settings: in vivo
[30] = AUC in cynomolgus monkey at 3 mg/kg, iv; assay type: ADME, organism-based, Macaca fascicularis; set-up: dose 3 mg/kg; settings: in vivo
[31] = Oral bioavailability in CD-1 mouse at 3 mg/kg; assay type: ADME, organism-based; settings: in vivo
[32] = AUC in Wistar rat at 3 mg/kg, po; assay type: ADME, organism-based; set-up: dose 3 mg/kg; settings: in vivo
[33] = target: T1, Peroxisome proliferator-activated receptor delta (Mus musculus); assay: Modulator activity at PPARdelta in […] primary myoblasts derived from DMD patient assessed as upregulation of PDK4 gene expression at 0.04 nM measured after 48 hrs; assay type: tissue-based; settings: Primary myotube
[34] = Oral bioavailability in cynomolgus monkey at 10 mg/kg; assay type: ADME, organism-based, Macaca fascicularis; settings: in vivo
[35] = AUC in CD-1 mouse at 1 mg/kg, iv; assay type: ADME, organism-based; set-up: dose 1 mg/kg; settings: in vivo
[36] = Volume of distribution at steady state in CD-1 mouse at 1 mg/kg, iv; assay type: ADME, organism-based; settings: in vivo, read-out: Vdss
[37] = Volume of distribution at steady state in Wistar rat at 1 mg/kg, iv; assay type: ADME, organism-based; settings: in vivo, read-out: Vdss
[38] = Mutagenicity in Salmonella typhimurium by mini Ames test; assay type: toxicity; settings: salmonella enterica subsp. enterica serovar typhimurium
[39] = target: T5, Peroxisome proliferator-activated receptor delta (Homo sapiens, UniProt Q03181)
T5 sequence (Q03181 whole entry): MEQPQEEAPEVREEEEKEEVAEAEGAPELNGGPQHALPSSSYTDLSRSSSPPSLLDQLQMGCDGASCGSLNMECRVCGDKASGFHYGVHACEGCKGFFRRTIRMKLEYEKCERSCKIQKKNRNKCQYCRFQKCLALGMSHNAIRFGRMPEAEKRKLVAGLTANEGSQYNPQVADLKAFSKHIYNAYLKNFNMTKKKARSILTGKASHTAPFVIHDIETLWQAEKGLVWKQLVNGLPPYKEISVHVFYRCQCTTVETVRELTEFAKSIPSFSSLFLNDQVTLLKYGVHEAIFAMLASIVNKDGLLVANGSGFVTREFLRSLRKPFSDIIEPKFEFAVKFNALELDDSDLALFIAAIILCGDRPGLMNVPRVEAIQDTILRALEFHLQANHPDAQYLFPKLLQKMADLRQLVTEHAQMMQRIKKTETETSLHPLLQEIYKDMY
Description: Modulator activity at GAL4-fused human PPARdelta LBD (128 to residue at C-terminus) transfected in African green monkey CV1 cells assessed as receptor transactivation by luciferase reporter gene assay

[40] = Half life in cynomolgus monkey at 3 mg/kg, iv; assay type: ADME, organism-based, Macaca fascicularis; settings: in vivo
[41] = Half life in CD-1 mouse at 3 mg/kg, po; assay type: ADME, organism-based; settings: in vivo
[42] = Selectivity index, ratio of EC50 for transactivation of GAL4-fused PPARalpha LBD (unknown origin) transfected in CV1 cells to EC50 for transactivation of GAL4-fused human PPARdelta LBD (128 to residue at C-terminus) transfected in African green monkey CV1 cells by luciferase reporter gene assay

CYP2C9, sequence (P11712 whole entry): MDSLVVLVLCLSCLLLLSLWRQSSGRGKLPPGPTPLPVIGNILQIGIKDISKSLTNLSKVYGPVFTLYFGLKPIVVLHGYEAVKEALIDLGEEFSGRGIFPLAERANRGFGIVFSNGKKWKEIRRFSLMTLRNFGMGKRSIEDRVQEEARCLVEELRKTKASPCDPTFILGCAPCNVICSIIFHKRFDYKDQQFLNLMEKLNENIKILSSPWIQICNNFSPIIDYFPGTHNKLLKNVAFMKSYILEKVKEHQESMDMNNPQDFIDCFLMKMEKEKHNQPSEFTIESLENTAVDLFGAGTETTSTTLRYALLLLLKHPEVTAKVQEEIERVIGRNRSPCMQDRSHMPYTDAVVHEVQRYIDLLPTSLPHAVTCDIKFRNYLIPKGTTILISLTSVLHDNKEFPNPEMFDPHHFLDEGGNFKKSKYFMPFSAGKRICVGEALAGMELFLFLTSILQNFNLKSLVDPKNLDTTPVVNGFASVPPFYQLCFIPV

Cc1cnc(-c2ccc(OC(F)(F)F)cc2)n1Cc1ccccc1OCCC[C@@H](C)CC(=O)O
Cmax [1]: 510 ng/mL
Activity [2]: 98%
half-life [3]: 3.3 h
IC50 [4]: ≥ 10 µM
bioavailability [5]: 90%
EC50 [6]: 0.01 µM
fraction unbound [7]: 0.001
Papp A→B [8]: 36 ×10⁻⁶ cm/s
Activity (Mus musculus): Active
half-life [9]: 2.7 h
clearance [10]: 10 mL/min/kg
EC50 [11]: 0.0079 µM
fraction unbound [12]: 0.005
Activity [13]: 36%
AUC [14]: 1590 ng·h/mL
fraction unbound [15]: 0.004
Activity [16]: 98%
Vdss [17]: 3.2 L/kg
AUC [18]: 3840 ng·h/mL
Papp B→A [19]: 41 ×10⁻⁶ cm/s
half-life [20]: 4.6 h
AUC [21]: 630 ng·h/mL
inhibition at 10 µM (CYP2C9): 56%
half-life [22]: 6.1 h
Cmax [23]: 1090 ng/mL
EC50 [24]: 6.9 µM
EC50 [25]: > 10 µM
half-life [26]: 7.3 h
clearance [27]: 25 mL/min/kg
Cmax [28]: 1660 ng/mL
AUC [29]: 1250 ng·h/mL
AUC [30]: 8400 ng·h/mL
bioavailability [31]: 42%
AUC [32]: 4920 ng·h/mL
Activity [33]: 32%
bioavailability [34]: 13%
AUC [35]: 503 ng·h/mL
Vd [36]: 5.8 L/kg
Vd [37]: 1.8 L/kg
Activity [38]: Non-Toxic
EC50 [39]: 0.0004 µM
t1/2 [40]: 6.1 h
half-life [41]: 3.4 h

Cc1cnc(-c2ccc(OC(F)F)cc2)n1Cc1ccccc1OCCC[C@@H](C)CC(=O)O
EC50 [24]: 15.1 µM
EC50 [25]: > 10 µM

C/C(=C\COc1ccccc1Cc1sc(C)nc1-c1ccc(-c2ccco2)cc1)CCC(=O)O
half-life [3]: 0.8 h
Ratio EC50 [42]: >1000
EC50 [24]: 7.25 µM
EC50 [25]: > 10 µM
clearance [27]: 55 mL/min/kg
AUC [29]: 900 ng·h/mL
EC50 [39]: 0.0095 µM

Cc1cnc(-c2ccc(Cl)cc2)n1Cc1ccccc1OCCC[C@@H](C)CC(=O)O
half-life [9]: 1.4 h
EC50 [24]: > 100 µM
EC50 [25]: > 10 µM
AUC [35]: 752 ng·h/mL
EC50 [39]: 0.0055 µM
